Experimental data reported in ChEMBL document CHEMBL1201862, “PubChem BioAssay data set” (2004).
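Step 1: Grow cells in 96-well plates. Step 2: Expose to compound for 48 hours at 5 concentrations. Step 3: Interpolate endpoints linearly; if unreached, use highest concentration. The concentration for 50% growth inhibition is given as GI50.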 The source made the active and inactive calls. Rule as the data show it: active = GI50 up to about 1.1 µM and inactive = higher.

How the values were obtained:
Test in all cases: NCI tumour cell line growth inhibition, 48 h
CCRF-CEM = test system: CCRF-CEM
NCI/ADR-RES = test system: NCI/ADR-RES
A549 = test system: A549
M14 = test system: M14
SF-539 = test system: SF-539
SNB-75 = test system: SNB-75
CAKI-1 = test system: CAKI-1
NCI-H226 = test system: NCI-H226
U-251 = test system: U-251
MDA-MB-231 = test system: MDA-MB-231
SF-268 = test system: SF-268
MDA-N = test system: MDA-N
KM12 = test system: KM12
RXF 393 = test system: RXF 393
MCF7 = test system: MCF7
RPMI-8226 = test system: RPMI-8226
NCI-H460 = test system: NCI-H460
A498 = test system: A498
HL-60 = test system: HL-60
DU-145 = test system: DU-145

SMILES	GI50 (CCRF-CEM)	GI50 (NCI/ADR-RES)	GI50 (A549)	GI50 (M14)	GI50 (SF-539)	GI50 (SNB-75)	GI50 (CAKI-1)	GI50 (NCI-H226)	GI50 (U-251)	GI50 (MDA-MB-231)	GI50 (SF-268)	GI50 (MDA-N)	GI50 (KM12)	GI50 (RXF 393)	GI50 (MCF7)	GI50 (RPMI-8226)	GI50 (NCI-H460)	GI50 (A498)	GI50 (HL-60)	GI50 (DU-145)
O=C(CSc1nc2nncc-2c(O)[nH]1)c1ccc(Cl)cc1	> 100 µM (inactive)	> 100 µM (inactive)	> 100 µM (inactive)	> 100 µM (inactive)	> 100 µM (inactive)	0.246 µM (active)	> 100 µM (inactive)	> 100 µM (inactive)	> 100 µM (inactive)	> 100 µM (inactive)	> 100 µM (inactive)	> 100 µM (inactive)	> 100 µM (inactive)	> 100 µM (inactive)	> 100 µM (inactive)	> 100 µM (inactive)	> 100 µM (inactive)			
CN(N=O)C(=O)NC(CCCCNC(=O)OCc1ccccc1)C(=O)OCc1ccccc1 (stereo not drawn)	25 µM (inactive)		83 µM (inactive)	19.3 µM (inactive)	17.4 µM (inactive)	18.8 µM (inactive)	21.4 µM (inactive)	42.9 µM (inactive)	53.3 µM (inactive)				48.2 µM (inactive)	33.7 µM (inactive)		33.5 µM (inactive)	43.9 µM (inactive)	55.5 µM (inactive)	25.2 µM (inactive)	
O=C(NC1CCCCC1)c1nn[nH]c1Cl	> 100 µM (inactive)	> 100 µM (inactive)	> 100 µM (inactive)	> 100 µM (inactive)	> 100 µM (inactive)		> 100 µM (inactive)		> 100 µM (inactive)	> 100 µM (inactive)	> 100 µM (inactive)		> 100 µM (inactive)	> 100 µM (inactive)	> 100 µM (inactive)		> 100 µM (inactive)	> 100 µM (inactive)		> 100 µM (inactive)
CNC(=S)/N=C(\N)N(C)C			> 100 µM (inactive)	> 100 µM (inactive)	> 100 µM (inactive)	> 100 µM (inactive)	> 100 µM (inactive)	> 100 µM (inactive)	> 100 µM (inactive)		> 100 µM (inactive)		> 100 µM (inactive)	> 100 µM (inactive)		> 100 µM (inactive)	> 100 µM (inactive)	> 100 µM (inactive)	> 100 µM (inactive)	
CCOc1ccc(/C=C2\NC(=S)N(/C=C3\C(=O)Oc4ccccc4C3=O)C2=O)cc1	15.1 µM (inactive)	23.1 µM (inactive)	> 10 µM (inactive)	31.6 µM (inactive)	16.3 µM (inactive)	23 µM (inactive)	23.9 µM (inactive)	24.7 µM (inactive)	29 µM (inactive)	20.4 µM (inactive)	22.2 µM (inactive)		20.7 µM (inactive)	3.84 µM (inactive)	17.8 µM (inactive)		21.4 µM (inactive)		13.7 µM (inactive)	22.4 µM (inactive)
B.CC(=O)OC1CN2CCC1CC2 (stereo not drawn)	> 100 µM (inactive)	> 100 µM (inactive)	> 100 µM (inactive)	> 100 µM (inactive)	> 100 µM (inactive)			> 100 µM (inactive)	> 100 µM (inactive)	> 100 µM (inactive)	> 100 µM (inactive)		> 100 µM (inactive)	> 100 µM (inactive)	> 100 µM (inactive)		> 100 µM (inactive)	> 100 µM (inactive)	> 100 µM (inactive)	> 100 µM (inactive)
CC1=C(/C=C/C(C)=C/C2CC(N(C)C)=CC(=O)O2)C(C)(C)CCC1 (stereo not drawn)	3.46 µM (inactive)		9.75 µM (inactive)	14.8 µM (inactive)	16.5 µM (inactive)	17.7 µM (inactive)	22.2 µM (inactive)	11.9 µM (inactive)	14.6 µM (inactive)		21 µM (inactive)		15.6 µM (inactive)	14.9 µM (inactive)		1.37 µM (inactive)	17.7 µM (inactive)	14.9 µM (inactive)	1.44 µM (inactive)	
Cc1ccc(N2CCc3c(C)c(C#N)c4nc5ccccc5n4c32)cc1	> 100 µM (inactive)	> 100 µM (inactive)	> 100 µM (inactive)		39.3 µM (inactive)	22.7 µM (inactive)	70.6 µM (inactive)	> 100 µM (inactive)	38.8 µM (inactive)		31.8 µM (inactive)			32.1 µM (inactive)	> 100 µM (inactive)		99.1 µM (inactive)		> 100 µM (inactive)	> 100 µM (inactive)
Cc1ccc(-c2n[nH]c(=O)[nH]2)cc1[N+](=O)[O-]	> 100 µM (inactive)	> 100 µM (inactive)	> 100 µM (inactive)	> 100 µM (inactive)	> 100 µM (inactive)	61 µM (inactive)	> 100 µM (inactive)	> 100 µM (inactive)	> 100 µM (inactive)		> 100 µM (inactive)	> 100 µM (inactive)	> 100 µM (inactive)	> 100 µM (inactive)	> 100 µM (inactive)	> 100 µM (inactive)	> 100 µM (inactive)	> 100 µM (inactive)	> 100 µM (inactive)	> 100 µM (inactive)
CC[C@@H]1CC[C@@H]2[C@H](CC[C@]3(C)[C@@H](OS(=O)(=O)c4ccc(C)cc4)CC[C@@H]23)[C@H]1COS(=O)(=O)c1ccc(C)cc1	> 100 µM (inactive)	> 100 µM (inactive)	> 100 µM (inactive)	> 100 µM (inactive)	> 100 µM (inactive)			> 100 µM (inactive)	> 100 µM (inactive)		> 100 µM (inactive)	> 100 µM (inactive)		> 100 µM (inactive)	> 100 µM (inactive)	> 100 µM (inactive)	> 100 µM (inactive)	> 100 µM (inactive)	> 100 µM (inactive)	> 100 µM (inactive)
C=C(C)[C@@]1(O)O[C@H]2C[C@@]3(C)OC(=CC3=O)/C(C)=C\[C@@H]3OC(=O)[C@@]1(C)[C@H]32	3.94 µM (inactive)	13.1 µM (inactive)	29.2 µM (inactive)	14.9 µM (inactive)	23.9 µM (inactive)	23.8 µM (inactive)	19.6 µM (inactive)	39.3 µM (inactive)	16.1 µM (inactive)	17 µM (inactive)	23 µM (inactive)		15.1 µM (inactive)	11.1 µM (inactive)	11.6 µM (inactive)	7.94 µM (inactive)	22.8 µM (inactive)		14.2 µM (inactive)	37.7 µM (inactive)
CCOC(=O)C1=C(C)N(NC(=O)Nc2ccccc2)C(=O)C1=P(c1ccccc1)(c1ccccc1)c1ccccc1	26.1 µM (inactive)		48.9 µM (inactive)	32.4 µM (inactive)	28.2 µM (inactive)	38 µM (inactive)	44.7 µM (inactive)	50 µM (inactive)	33.9 µM (inactive)		> 100 µM (inactive)		> 10 µM (inactive)	28 µM (inactive)		24.2 µM (inactive)	38.6 µM (inactive)	29.5 µM (inactive)	21.4 µM (inactive)	
CC(C)(O)CCC(O)C(C)(O)C1CCC2(O)C3=CC(=O)C4(O)CC(O)C(O)CC4(C)C3CCC12C.CC(C)(O)CCC(O)C(C)(O)C1CCC2(O)C3=CC(=O)C4CC(O)C(O)CC4(C)C3CCC12C (stereo not drawn)	> 100 µM (inactive)	> 100 µM (inactive)	> 100 µM (inactive)	> 100 µM (inactive)	> 100 µM (inactive)	> 100 µM (inactive)	> 100 µM (inactive)	> 100 µM (inactive)	> 100 µM (inactive)	> 100 µM (inactive)	> 100 µM (inactive)		> 100 µM (inactive)	> 100 µM (inactive)	86.7 µM (inactive)		> 100 µM (inactive)	> 100 µM (inactive)	> 100 µM (inactive)	> 100 µM (inactive)
Nc1ccc(/N=N/c2ccc(-c3ccc(/N=N/c4c(S(=O)(=O)O)cc5cc(S(=O)(=O)O)c(/N=N/c6ccc([N+](=O)[O-])cc6)c(N)c5c4O)cc3)cc2)c2cc(S(=O)(=O)O)ccc12	> 100 µM (inactive)		> 100 µM (inactive)	> 100 µM (inactive)	> 100 µM (inactive)	78.9 µM (inactive)	> 100 µM (inactive)	> 100 µM (inactive)	> 100 µM (inactive)		> 100 µM (inactive)		> 100 µM (inactive)	> 100 µM (inactive)		> 100 µM (inactive)	> 100 µM (inactive)	> 100 µM (inactive)	> 100 µM (inactive)	
O=[N+]([O-])c1ccc2c(/N=N/c3ccc4ccccc4c3O)c(O)cc(S(=O)(=O)O)c2c1	8.77 µM (inactive)	11.1 µM (inactive)	40.6 µM (inactive)	6.76 µM (inactive)	11.4 µM (inactive)	26.7 µM (inactive)	12.6 µM (inactive)	4.66 µM (inactive)	7.41 µM (inactive)	35 µM (inactive)	8.89 µM (inactive)		31.8 µM (inactive)	17.9 µM (inactive)	30.3 µM (inactive)	17.8 µM (inactive)	38.5 µM (inactive)	35.3 µM (inactive)	9.06 µM (inactive)	18.7 µM (inactive)
COc1cc([C@@H]2c3cc4c(c(O)c3C[C@H]3COC(=O)[C@@H]32)OCO4)cc(OC)c1O		0.0231 µM (active)	< 0.02 µM (active)	0.00278 µM (active)		25.4 µM (inactive)	< 0.02 µM (active)	< 0.02 µM (active)			< 0.02 µM (active)			0.233 µM (active)	0.0377 µM (active)	0.026 µM (active)		< 0.02 µM (active)		
